Measurements from PubChem BioAssay (NCI).
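Following 48 hours of exposure in 96-well plates, responses at five concentrations were used to interpolate endpoints linearly. TGI denotes the concentration required for complete inhibition of growth.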

Tests used:
Assay in all cases: NCI tumour cell line growth inhibition, 48 h
OVCAR-8 ovarian = test system: OVCAR-8 ovarian
BT-549 breast = test system: BT-549 breast
PC-3 prostate = test system: PC-3 prostate
SN12C renal = test system: SN12C renal
NCI/ADR-RES ovarian = test system: NCI/ADR-RES ovarian
MDA-N = test system: MDA-N
HL-60(TB) leukemia = test system: HL-60(TB) leukemia
HCT-116 colon = test system: HCT-116 colon
SK-MEL-5 melanoma = test system: SK-MEL-5 melanoma
RPMI-8226 leukemia = test system: RPMI-8226 leukemia
MALME-3M melanoma = test system: MALME-3M melanoma
SNB-75 CNS = test system: SNB-75 CNS
SF-268 CNS = test system: SF-268 CNS
UACC-257 melanoma = test system: UACC-257 melanoma
UACC-62 melanoma = test system: UACC-62 melanoma
UO-31 renal = test system: UO-31 renal
LOX IMVI melanoma = test system: LOX IMVI melanoma
SW-620 colon = test system: SW-620 colon
NCI-H522 lung = test system: NCI-H522 lung
SF-295 CNS = test system: SF-295 CNS
CCRF-CEM leukemia = test system: CCRF-CEM leukemia
MCF7 breast = test system: MCF7 breast
SK-OV-3 ovarian = test system: SK-OV-3 ovarian
M14 melanoma = test system: M14 melanoma
HT29 colon = test system: HT29 colon
RXF 393 renal = test system: RXF 393 renal
A549 NSCLC = test system: A549 NSCLC
NCI-H226 lung = test system: NCI-H226 lung
EKVX NSCLC = test system: EKVX NSCLC
SK-MEL-2 melanoma = test system: SK-MEL-2 melanoma
COLO 205 colon = test system: COLO 205 colon
MOLT-4 leukemia = test system: MOLT-4 leukemia
K-562 leukemia = test system: K-562 leukemia
SK-MEL-28 melanoma = test system: SK-MEL-28 melanoma
TK-10 renal = test system: TK-10 renal
OVCAR-3 ovarian = test system: OVCAR-3 ovarian
A498 renal = test system: A498 renal
HS 578T breast = test system: HS 578T breast
ACHN renal = test system: ACHN renal
SNB-19 CNS = test system: SNB-19 CNS
HCT-15 colon = test system: HCT-15 colon
MDA-MB-435 = test system: MDA-MB-435
NCI-H460 lung = test system: NCI-H460 lung
DU-145 prostate = test system: DU-145 prostate
MDA-MB-231 breast = test system: MDA-MB-231 breast
U251 CNS = test system: U251 CNS
786-0 renal = test system: 786-0 renal
HOP-62 NSCLC = test system: HOP-62 NSCLC
OVCAR-4 ovarian = test system: OVCAR-4 ovarian
IGROV1 ovarian = test system: IGROV1 ovarian
KM12 colon = test system: KM12 colon
SF-539 CNS = test system: SF-539 CNS
NCI-H23 lung = test system: NCI-H23 lung
OVCAR-5 ovarian = test system: OVCAR-5 ovarian
CAKI-1 renal = test system: CAKI-1 renal
HCC-2998 colon = test system: HCC-2998 colon
HOP-92 NSCLC = test system: HOP-92 NSCLC
SR leukemia = test system: SR leukemia

Measured: TGI

COc1cc(/C=C2\CCC/C(=C\c3ccc(OC(=O)CCCCC4CCSS4)c(OC)c3)C2=O)ccc1OC(=O)CCCCC1CCSS1 (centres undefined)
not listed: CAKI-1 renal | HCC-2998 colon | HOP-92 NSCLC | SR leukemia
> 100 µM: all other assays above

COc1ccc(NC(=S)Nc2ccccc2)cc1
not listed: CCRF-CEM leukemia | MOLT-4 leukemia | KM12 colon
> 100 µM: all other assays above
